As usually defined, the IC50 is the concentration needed to halve the response being measured. Low values mean greater potency, high ones weaker potency.

These results are taken from ChEMBL document CHEMBL5214967, “Natural Product-Inspired Targeted Protein Degraders: Advances and Perspectives” (J Med Chem, 2022).

In this assay the test system is SU-DHL-1. In words: Cytotoxicity against human SU-DHL-1 cells incubated for 72 hrs by CCK-8 assay. It counts as functional, cell-based. To be noted: SU-DHL-1, 72 h. (In general: Tetrazolium assays rely on reduction of a dye to a coloured formazan, in cell work by metabolically active cells.)

Compound `Cc1cc(Nc2ncc(N)c(Nc3ccccc3S(=O)(=O)C(C)C)n2)c(OC(C)C)cc1C1CCN(C(=O)CCCC(=O)N[C@@H](C(=O)N2C[C@H](OC(=O)CCCCn3cc(CNC(=O)CCC(NC(=O)c4ccc(NCc5cnc6nc(N)[nH]c(=O)c6n5)cc4)C(=O)O)nn3)C[C@H]2C(=O)N[C@@H](C)c2ccc(-c3scnc3C)cc2)C(C)(C)C)CC1` (stereo partly specified) came in with an IC50 of 200 nM.
